Reference: patent US20020037559A1, “PROCESS FOR PRODUCING N-PROTECTED D-PROLINE DERIVATIVES” (priority 1996, published 2002)
“Also recorded” adds a separate entry of the source.

What was measured:
N-acyl-L-proline acylase [1] = assay: Inducers of N-acyl-L-proline acylase, resting cells tested against N-Z-L-proline and N-Z-D-proline; assay type: cell-based, Arthrobacter sp. HSZ5; details: for Induction of the enzymatic activity (N-acyl-L-proline acylase): 1 g/l added to minimal medium with fructose 5 g/l and L-glutamate 2 g/l, proline detected by HPLC
Method: Arthrobacter sp. HSZ5 was grown in minimal medium (Example 1) using fructose (5 g/l) as the C source and L-glutamate (2 g/l) as the N source.

[2] = system: N-acyl-L-proline acylase of Arthrobacter sp. HSZ5; assay: Effect of product inhibition on the activity of the N-acyl-L-proline acylase; assay type: cell-based; details: for Inhibition of the enzymatic activity of N-acyl-L-proline acylase: cells pre-incubated 30 minutes (30° C., pH 6.4) with product, then 30° C., pH 6.5, 50 g/l N-Z-L-proline; for Manner of inhibition: from dependence of inhibition on concentration
Method: Arthrobacter sp. HSZ5 was grown (30° C., 120 rpm) in the medium described in Table 1 using fructose (5 […]) as the C or N source. After reaching the desired cell density, the cells were harvested by centrifugation, washed in sodium chloride solution (0.9%) and finally also resuspended in the latter. […] As the 100% value, the result of the batch at pH=7.0 was employed. d) Effect of product inhibition on the activity of the N-acyl-L-proline acylase of Arthrobacter sp. HSZ5 cells having N-acyl-L-proline acylase activity were prepared as described under 9a). […] As the 100% value, the results of the batch was employed here which had been incubated without addition of one of the products.

Arthrobacter sp. HSZ5 [3] = assay: Enzymatic hydrolysis of N-Z-DL-proline by resting cells; assay type: cell-based; details: after 60 minutes; N-Z-DL-proline 50 g/l, OD650=30, 30° C., pH 7.0, HPLC
Method: a) Arthrobacter sp. […] The cells were harvested and washed as described previously. The resting cells (OD650=30) were incubated at 30° C. with N-Z-DL-proline (50 g/l) under pH stasis (pH 7.0) and with stirring.

Arthrobacter sp. HSZ5 [4] = assay: Growth using N-protected amino acids as the sole N source; assay type: cell-based; details: minimal medium, fructose 5 g/l as C source, N source 5 g/l, 30° C., 120 rpm
Method: (§1) Arthrobacter sp. HSZ5, Alcaligenes xylosoxidans ssp. denitrificans HSZ17, Agrobacterium/Rhizobium HSZ30, Bacillus simplex K2, Alcaligenes piechaudii K4 and Pseudomonas putida […] were grown (30° C., 120 rpm) in the medium described in Table 1 using fructose (5 g/l) as the C source. As the sole N source (5 g/l), in each case various N-protected amino acids were added. On reaching a cell density of OD650>0.5, the batch was assessed as positive.

Pseudomonas putida K32 = assay: as above; assay type: cell-based; details: minimal medium, fructose 5 g/l as C source, N source 5 g/l, 30° C., 120 rpm
Method: as §1

[5] = system: Agrobacterium/Rhizobium HSZ30; assay: as above; assay type: cell-based; details: minimal medium, fructose 5 g/l as C source, N source 5 g/l, 30° C., 120 rpm
Method: as §1

Bacillus simplex K2 = assay: as above; assay type: cell-based; details: minimal medium, fructose 5 g/l as C source, N source 5 g/l, 30° C., 120 rpm
Method: as §1

N-acyl-L-proline acylase [6] = assay: Substrate specificity of N-acyl-L-proline acylase; assay type: biochemical, Arthrobacter sp. HSZ5
Description: The enzymes according to the invention, the N-acyl-L-proline acylases, can be obtained, for example, by customary expert disruption of the described microorganism cells, preferably the enzymes are obtained from Arthrobacter sp. HSZ5 (DSM 10329). For this, for example, the ultrasound, French press or lysozyme method can be used. The enzymes are characterized by the following properties:
N-acyl-L-proline acylase, characterized by the following properties:

[7] = system: Alcaligenes xylosoxidans ssp. denitrificans HSZ17; assay: Growth using N-protected amino acids as the sole N source; assay type: cell-based; details: minimal medium, fructose 5 g/l as C source, N source 5 g/l, 30° C., 120 rpm
Method: as §1

[8] = system: Alcaligenes piechaudii K4; assay: as above; assay type: cell-based; details: minimal medium, fructose 5 g/l as C source, N source 5 g/l, 30° C., 120 rpm
Method: as §1

Arthrobacter sp. HSZ5 [9] = assay: Biotransformation of N-Z-DL-proline in 450 l fermenter; assay type: cell-based; details: pH 7.5-8.5, 30° C.
Description: d) Arthrobacter sp. […] The enzymatic activity was then induced by addition of 4 kg of 50% (w/w) N-Z-DL-proline solution. […] The cells were removed by ultracentrifugation from the 320 kg of culture finally obtained and an aliquot (1444 g) of the cell-free fermentation broth was worked up as described under 6a).

Structure (SMILES): O=C(O)C1CCCN1C(=O)OCc1ccccc1 (racemic) [N-Z-DL-proline]
- Induction of the enzymatic activity (N-acyl-L-proline acylase) (N-acyl-L-proline acylase [1]): induced the desired enzymatic activity

Structure (SMILES): O=C(O)[C@@H]1CCCN1 [L-proline]
- Inhibition of the enzymatic activity of N-acyl-L-proline acylase [2]: no inhibition of the enzymatic activity at all even in high concentration

Structure (SMILES): O=C(O)[C@H]1CCCN1C(=O)OCc1ccccc1 [N-Z-D-proline, N-benzyloxycarbonyl-D-proline]
- Hydrolysis by resting cells (Arthrobacter sp. HSZ5 [3]): unchanged
- Inhibition of the enzymatic activity of N-acyl-L-proline acylase [2]: drastic lowering of the enzyme activity with increasing concentration
- Inhibition of the enzymatic activity of N-acyl-L-proline acylase ([2]; listed as N-benzyloxycarbonyl-D-proline): inhibitory action
- Manner of inhibition [2]: competitive inhibitor

Structure (SMILES): C[C@H](NC(=O)OCc1ccccc1)C(=O)O [N-Z-L-alanine, N-benzyloxycarbonyl-L-alanine]
- Growth using N-protected amino acid as the sole N source (Arthrobacter sp. HSZ5 [4]): + (On reaching a cell density of OD650>0.5, the batch was assessed as positive)
- Growth using N-protected amino acid as the sole N source (Pseudomonas putida K32): + (On reaching a cell density of OD650>0.5, the batch was assessed as positive)
- Growth using N-protected amino acid as the sole N source [5]: + (On reaching a cell density of OD650>0.5, the batch was assessed as positive)
- Growth using N-protected amino acid as the sole N source (Bacillus simplex K2): + (On reaching a cell density of OD650>0.5, the batch was assessed as positive)
- Substrate specificity (hydrolysis by the enzyme) (N-acyl-L-proline acylase [6]): hydrolysed

Structure (SMILES): O=C(O)[C@@H]1CCCN1C(=O)OCc1ccccc1 [N-Z-L-proline, N-benzyloxycarbonyl-L-proline]
- Growth using N-protected amino acid as the sole N source (Arthrobacter sp. HSZ5 [4]): + (On reaching a cell density of OD650>0.5, the batch was assessed as positive)
- Growth using N-protected amino acid as the sole N source (Pseudomonas putida K32): + (On reaching a cell density of OD650>0.5, the batch was assessed as positive)
- Growth using N-protected amino acid as the sole N source [5]: + (On reaching a cell density of OD650>0.5, the batch was assessed as positive)
- Growth using N-protected amino acid as the sole N source (Bacillus simplex K2): + (On reaching a cell density of OD650>0.5, the batch was assessed as positive)
- Growth using N-protected amino acid as the sole N source [7]: + (On reaching a cell density of OD650>0.5, the batch was assessed as positive)
- Growth using N-protected amino acid as the sole N source [8]: + (On reaching a cell density of OD650>0.5, the batch was assessed as positive)
- Induction of the enzymatic activity (N-acyl-L-proline acylase) (N-acyl-L-proline acylase [1]): induced the desired enzymatic activity
- Acceptance as substrate by induced resting cells (N-acyl-L-proline acylase [1]; resting cells, tested against N-Z-L-proline and N-Z-D-proline): accepted as the substrate
- Maximal rate of hydrolysis (Arthrobacter sp. HSZ5 [9]): about 12 g of N-Z-L-proline hydrolysed/l×h
- Hydrolysis by resting cells (Arthrobacter sp. HSZ5 [3]): almost completely hydrolysed

Structure (SMILES): O=C(O)[C@@H]1CCC(=O)N1C(=O)OCc1ccccc1 [N-Z-L-pyroglutamate, N-benzyloxycarbonyl-L-pyroglutamate]
- Growth using N-protected amino acid as the sole N source (Arthrobacter sp. HSZ5 [4]): + (On reaching a cell density of OD650>0.5, the batch was assessed as positive)
- Growth using N-protected amino acid as the sole N source (Pseudomonas putida K32): + (On reaching a cell density of OD650>0.5, the batch was assessed as positive)
- Growth using N-protected amino acid as the sole N source [5]: + (On reaching a cell density of OD650>0.5, the batch was assessed as positive)
- Growth using N-protected amino acid as the sole N source (Bacillus simplex K2): + (On reaching a cell density of OD650>0.5, the batch was assessed as positive)
- Growth using N-protected amino acid as the sole N source [7]: + (On reaching a cell density of OD650>0.5, the batch was assessed as positive)
- Growth using N-protected amino acid as the sole N source [8]: + (On reaching a cell density of OD650>0.5, the batch was assessed as positive)

Structure (SMILES): O=C(N[C@@H](CO)C(=O)O)OCc1ccccc1 [N-Z-L-serine]
- Growth using N-protected amino acid as the sole N source (Arthrobacter sp. HSZ5 [4]): + (On reaching a cell density of OD650>0.5, the batch was assessed as positive)
- Growth using N-protected amino acid as the sole N source (Pseudomonas putida K32): + (On reaching a cell density of OD650>0.5, the batch was assessed as positive)

Structure (SMILES): CN(CC(=O)O)C(=O)OCc1ccccc1 [N-Z-sarcosine]
- Growth using N-protected amino acid as the sole N source (Arthrobacter sp. HSZ5 [4]): + (On reaching a cell density of OD650>0.5, the batch was assessed as positive)

Structure (SMILES): CC(=O)N1CCC[C@H]1C(=O)O [N-acetyl-L-proline]
- Growth using N-protected amino acid as the sole N source (Arthrobacter sp. HSZ5 [4]): + (On reaching a cell density of OD650>0.5, the batch was assessed as positive)
- Growth using N-protected amino acid as the sole N source (Pseudomonas putida K32): + (On reaching a cell density of OD650>0.5, the batch was assessed as positive)
- Growth using N-protected amino acid as the sole N source [5]: + (On reaching a cell density of OD650>0.5, the batch was assessed as positive)
- Growth using N-protected amino acid as the sole N source [7]: + (On reaching a cell density of OD650>0.5, the batch was assessed as positive)

Structure (SMILES): O=C(O)[C@@H]1CCCN1C(=O)c1ccccc1 [N-benzoyl-L-proline]
- Growth using N-protected amino acid as the sole N source (Arthrobacter sp. HSZ5 [4]): + (On reaching a cell density of OD650>0.5, the batch was assessed as positive)
- Growth using N-protected amino acid as the sole N source (Pseudomonas putida K32): + (On reaching a cell density of OD650>0.5, the batch was assessed as positive)

Structure (SMILES): CC(C)COC(=O)N1CCC[C@H]1C(=O)O [N-isobutoxycarbonyl-L-proline]
- Growth using N-protected amino acid as the sole N source (Arthrobacter sp. HSZ5 [4]): + (On reaching a cell density of OD650>0.5, the batch was assessed as positive)
- Growth using N-protected amino acid as the sole N source (Pseudomonas putida K32): + (On reaching a cell density of OD650>0.5, the batch was assessed as positive)
- Growth using N-protected amino acid as the sole N source [8]: + (On reaching a cell density of OD650>0.5, the batch was assessed as positive)

Structure (SMILES): O=C(O)[C@@H]1CCCN1C(=O)Cc1ccccc1 [N-phenylacetyl-L-proline]
- Growth using N-protected amino acid as the sole N source (Arthrobacter sp. HSZ5 [4]): + (On reaching a cell density of OD650>0.5, the batch was assessed as positive)
- Growth using N-protected amino acid as the sole N source [8]: + (On reaching a cell density of OD650>0.5, the batch was assessed as positive)

Structure (SMILES): O=C(O)CCC(=O)N1CCC[C@H]1C(=O)O [N-succinyl-L-proline]
- Growth using N-protected amino acid as the sole N source (Pseudomonas putida K32): + (On reaching a cell density of OD650>0.5, the batch was assessed as positive)

Structure (SMILES): OCc1ccccc1 [benzyl alcohol]
- Inhibition of the enzymatic activity of N-acyl-L-proline acylase [2]: drastic lowering of the enzyme activity with increasing concentration; also recorded: inhibitory action
- Manner of inhibition [2]: non-competitive
